According to patent publication US20200339544A1 (JOINT STOCK COMPANY "BIOCAD", priority 2017, published 2020):
Where two headings read alike, the source gives them in different places. Marks after values point to notes of the source that are not given here.

How the values were obtained:
[1] = Chemical stability in human blood plasma; assay type: in vitro ADME; conditions: pooled human blood plasma; 10 μm; 4 hours at 37° C.; substance amount remaining
Summary of the method: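 Pooled plasma from ten healthy donors was spiked to 10 μM from a 10 mM DMSO stock and held 4 h at 37 °C. After acetonitrile protein precipitation, HPLC peak areas before and after incubation gave the percentage of compound remaining.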

[2] = Permeability through monolayer of Caco-2 cells; assay type: in vitro ADME; conditions: human, Caco-2 monolayer; for Papp A→B at 2 h, 10 µM: pH 6.5 upper / pH 7.4 lower, 2 h at 37° C.; for efflux ratio at 2 h, 10 µM: Papp B-A/Papp A-B
Text: 2) Assessment of permeability through monolayer of Caco-2 cells.
Assessment of permeability through the monolayer of Caco-2 cells allows to evaluate the ability of the candidate compounds to penetrate through biological membranes by active and passive transport.
Caco-2, the cells of the intestinal epithelium, had been cultured in transwell plate inserts with the filters (with pores of 0.4 μm, BD Falcon with High Density) for 21 days, and then the integrity of the monolayer were estimated with Lucifer Yellow (Sigma-Aldrich, USA) by standard protocol. When setting the A→B transfer (“intestinal lumen”—“blood stream” transfer), solutions of test substances were added in a buffer with pH 6.5 (HBSS, 10 mM HEPES, 15 mM glucose solution) with the concentration of 10 μM into the upper chamber; the lower chamber was filled with a buffer with pH 7.4 (HBSS, 10 mM HEPES, 15 mM Glucose, 1% BSA). When setting B→A transfer (“blood stream”—“intestinal lumen” transfer), the upper chamber was filled with the buffer with pH 6.5, and solutions of the test substances were added in the buffer with pH 7.4 at the concentration of 10 μM in the lower chamber. Propranolol was used as a control substance (as it has high permeability).
After incubating for 2 h at 37° C. under 5% CO2, the amounts of test substances were determined in the upper and lower chambers by HPLC using Agilent1200 chromatograph (Agilent, USA) with preliminary protein precipitation with acetonitrile. We used gradient elution (1 mL/min flow rate). We determined the areas of peaks corresponding to the compounds. On the basis of peak areas in the calibration standards we determined the concentration of compound in the initial solution and in the samples from the wells of the upper and lower chambers. Papp, permeability through the cell layer, was calculated using the following formula:
Papp=(C(t)*V)/(C(0)*t*Area), wherein
The value was calculated with the following formula:
efflux=Papp B-A/Papp A-B, wherein • Papp A-B—the volume of permeability in A→B test; • Papp B-A—he volume of permeability in B→A test.

[3] = tested on: H1975 (lung adenocarcinoma, DM, L828R/T790M); experiment: Antiproliferative activity on H1975 cells (Alamar Blue); assay type: cell-based; conditions: for IC50: Homo sapiens, NCI-H1975, H1975 cells; for SI IC50(A549)/IC50(DM): selectivity index, A549 vs H1975 cells
Summary of the method: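 H1975 cells (15*10^3/well) attached 16-18 h in RPMI-1640 with 2% FBS, then exposed to compounds (≤1% DMSO final) for 72 h at 37 °C. Viability by Alamar Blue fluorescence (Ex 540/Em 590 nm) after 3-5 h; IC50 from four-parameter logistic fit.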

[4] = General cytotoxicity on HepG2 cells; assay type: cell-based; conditions: human; general cytotoxicity, HepG2 cells, 72 hours, average of several tests
Summary of the method: (§1)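 HepG2 cells seeded at 2*10^4 cells per well and compounds added in DMEM with 2% FBS for 72 h at 37 °C. Viability read with Alamar Blue and CC50 derived as for IC50. Therapeutic index taken as HepG2 CC50 over H1975 IC50.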

HepG2 cells = experiment: General cytotoxicity on HepG2 cells; assay type: cell-based; conditions: therapeutic index, CC50 HepG2 / IC50 H1975
Summary of the method: as §1

[5] = average values obtained in several tests, Table 16, read-out: H1975 (DM) IC50
[6] = antiproliferative test, Table 15, read-out: IC50 H1975 (DM)

Row | Stability in blood plasma, % [1] [%] | Papp A→B at 2 h, 10 µM [2] [×10⁻⁶ cm/s] | efflux ratio at 2 h, 10 µM [2] | IC50 [3, 5] [nM] | IC50 [3, 6] [nM] | SMILES | SI IC50(A549)/IC50(DM) [3] | CC50 at 72 h [4] [nM] | TI, CC50/IC50 (HepG2 cells)
1 | 86.2 | 3.84 | 1.87 | 17.1 | 17.1 | C=CC(=O)Nc1cc(Nc2nccc(C(=O)c3ccc(OC)cc3)n2)c(OC)cc1N(C)CCN(C)C [EGFR_3365_28, N-(2-((2-(dimethylamino)ethyl)(methyl)amino)-4-methoxy-5-((4-(4-methoxybenzoyl)pyrimidin-2-yl)amino)phenyl)acrylamide] | 213.04 | 31400 | 1836
2 | 99.7 | 5.8 | 1.1 | 8.1 | 10.5 | C=CC(=O)Nc1cc(Nc2nccc(C(=O)c3ccc(N4CCC4)cc3)n2)c(OC)cc1N(C)CCN(C)C [EGFR_3365_58, N-(5-((4-(4-(azetidin-1-yl)benzoyl)pyrimidin-2-yl)amino)-2-((2-(dimethylamino)ethyl)(methyl)amino)-4-methoxyphenyl)acrylamide] | >1235 | 44400 | 4241
3 | 91.8 | 5.5 | 1.8 | 8.1 | 8.12 | C=CC(=O)Nc1cc(Nc2nccc(C(=O)c3ccc(N4CC(OC)C4)cc3)n2)c(OC)cc1N(C)CCN(C)C [EGFR_3365_61, N-(2-((2-(dimethylamino)ethyl)(methyl)amino)-4-methoxy-5-((4-(4-(3-methoxyazetidin-1-yl)benzoyl)pyrimidin-2-yl)amino)phenyl)acrylamide] | 2884 | 43000 | 5296

The next lines start with the molecule.

Row | SMILES | Stability in blood plasma, % [1] [%] | Papp A→B at 2 h, 10 µM [2] [×10⁻⁶ cm/s] | efflux ratio at 2 h, 10 µM [2] | IC50 [3, 5] [nM] | IC50 [3, 6] [nM] | SI IC50(A549)/IC50(DM) [3] | CC50 at 72 h [4] [nM] | TI, CC50/IC50 (HepG2 cells)
4 | C=CC(=O)Nc1cc(Nc2nccc(C(=O)c3ccccc3C(F)(F)F)n2)c(OC)cc1N(C)CCN(C)C [EGFR_3365, N-(2-((2-(dimethylamino)ethyl) (methyl)amino)-4-methoxy-5-((4-(2-(trifluoromethyl)benzoyl)pyrimidin-2-yl)amino)phenyl)acrylamide] | 90.3 | 5.28 | 1.29 | 60.1 | 60.1 | >166** | 25400 | 423
5 | C=CC(=O)Nc1cc(Nc2cc(C(=O)c3ccccc3)ccn2)c(OC)cc1N(C)CCN(C)C [EGFR_3365_3, N-(5-((4-benzoylpyridin-2-yl)amino)-2-((2-(dimethylamino)ethyl)(methyl)amino)-4-methoxyphenyl)acrylamide] | 82.1 | 5.9 | 0.8 | 44.5 | 44.5 | 136.32 | 15200 | 341
6 | C=CC(=O)Nc1cc(Nc2nccc(C(=O)c3ccc(F)cc3)n2)c(OC)cc1N(C)CCN(C)C [EGFR_3365_10, N-(2-((2-(dimethylamino)ethyl)(methyl)amino)-5-((4-(4-fluorobenzoyl)pyrimidin-2-yl)amino)-4-methoxyphenyl) acrylamide] | 94.2 | 2.88 | 0.58 | 211 | 211 | 62.70 | 30400 | 144
7 | C=CC(=O)Nc1cc(Nc2nccc(C(=O)c3ccccc3Br)n2)c(OC)cc1N(C)CCN(C)C [EGFR_3365_12, N-(5-((4-(2-bromobenzoyl)pyrimidin-2-yl)amino)-2-((2-(dimethylamino)ethyl) (methyl)amino)-4-methoxyphenyl)acrylamide] | 76.3 | 1.94 | 0.98 | 21.5 | 21.5 | 716.20 | 22600 | 1051
8 | C=CC(=O)Nc1cc(Nc2nccc(C(=O)c3ccc(OCC)cc3)n2)c(OC)cc1N(C)CCN(C)C [EGFR_3365_29, N-(2-((2-(dimethylamino)ethyl)(methyl)amino)-5-((4-(4-ethoxybenzoyl)pyrimidin-2-yl)amino)-4-methoxyphenyl) acrylamide] | 79.7 | 4.26 | 1.5 | 26.9 | 26.9 | 595.06 | 30600 | 1135
9 | C=CC(=O)Nc1cc(Nc2nccc(C(=O)c3ccc(OC(C)C)cc3)n2)c(OC)cc1N(C)CCN(C)C [EGFR_3365_31, N-(2-((2-(dimethylamino)ethyl)(methyl)amino)-5-((4-(4-isopropoxybenzoyl)pyrimidin-2-yl)amino)-4-methoxyphenyl) acrylamide] | 93.1 | 3.7 | 1.1 | 7.34 | 7.3 | 1509.19 | 9490 | 1293
10 | C=CC(=O)Nc1cc(Nc2cc(C(=O)c3ccc(OCCC)cc3)ccn2)c(OC)cc1N(C)CCN(C)C [EGFR_3365_50, N-(2-((2-(dimethylamino)ethyl)(methyl)amino)-4-methoxy-5-((4-(4-propoxybenzoyl)pyridin-2-yl)amino)phenyl)acrylamide] | 89.0 | 2 | 0.3 | 47.5 | 47.5 | 104 | 12400 | 262
11 | C=CC(=O)Nc1cc(Nc2cc(C(=O)c3ccc(N4CCCC4)cc3)ccn2)c(OC)cc1N(C)CCN(C)C [EGFR_3365_56, N-(2-((2-(dimethylamino)ethyl)(methyl)amino)-4-methoxy-5-((4-(4-(pyrrolidin-1-yl)benzoyl)pyridin-2-yl)amino)phenyl)acrylamide] | 83.2 | 1.8 | 1.7 | 29.2 | 29.2 | 156 | 9510 | 325
